Measurements taken from PMC4775916 (Antimicrobial Agents and Chemotherapy, 2016).
“And” between values parts separate entries of the source, which are not always exact repeats. Identical values can stand only once. Like-named read-outs stand apart in the source and are kept apart here.

Legend:
VIM-5 [1] = system: VIM-5; parameters: method as in Garcar et al. (6); conditions: previous studies ref Garcar et al. (6), cited from earlier work
VIM-1 [2] = molecular target: T1, VIM-1 (Pseudomonas aeruginosa, UniProt A0A0F7KYQ8); experiment: Steady-state kinetics of β-lactam substrate hydrolysis; format: biochemical
T1 construct: The N- and C- terminal residues of the mature enzymes are labelled 26; made in house
Protocol: (§1) The hydrolysis of a representative panel of β-lactam substrates was monitored at their respective absorbance wavelengths. The wavelengths and extinction coefficients used were previously described ([34]). The assays were carried out using 50 mM HEPES buffer (pH 7.2) supplemented with 1 μg/ml bovine serum albumin (BSA), 1 μM ZnSO4, and 0.01% Triton X-100. In the case of VIM-1, C-terminally His6-tagged VIM-1 was used for kinetic analyses. Note that no differences were observed between the activities of untagged VIM-1 and C-terminally His6-tagged VIM-1 for the selected antibiotics (data not shown). The initial rates were obtained from the changes in absorbance at various substrate concentrations. Steady-state kinetic parameters (Km and kcat) were determined by fitting the initial velocity data to the Michaelis-Menten equation using GraphPad Prism 5.01 software (see Table S4 in the supplemental material).

VIM-38 = molecular target: T2, VIM-38 (Pseudomonas aeruginosa, UniProt A0A0F7KYQ8, A128K/A265V/E202A/H201L/K257T/S205R); experiment: as above; format: biochemical; conditions: 50 mM HEPES pH 7.2, apparent for ampicillin and ceftazidime; for Km: read-out: Mean Km ± SD VIM-38
T2 construct: The N- and C- terminal residues of the mature enzymes are labelled 26; His6 with HRV3C cleavage site (pET-28a) (N, cleaved yes); made in house; host or cells: E. coli BL21(DE3)
Protocol: as §1

VIM-5 [3] = molecular target: T3, VIM-5 (Pseudomonas aeruginosa, UniProt A0A0F7KYQ8, A128K/E202A/H201L/K257T/S205R); experiment: as above; format: biochemical; conditions: for kcat VIM-5 / Km: 50 mM HEPES pH 7.2, apparent for ampicillin and ceftazidime; for Km: read-out: Mean Km ± SD VIM-5
T3 construct: His6 with HRV3C cleavage site (pET-28a) (N, cleaved yes); made in house; host or cells: E. coli BL21(DE3)
Protocol: as §1

VIM-2 [4] = molecular target: T4, VIM-2 (Escherichia coli, UniProt Q5U7L7); format: biochemical
T4 construct: His6 (N, cleaved yes); made in house
Protocol: as §1

VIM-1 [5] = molecular target: T1, VIM-1; conditions: previous studies ref Franceschini et al. (4), cited from earlier work; for Km: read-out: Km VIM-1 (previous study)
VIM-2 [6] = system: VIM-2; parameters: method as in Poirel et al. (5); conditions: previous studies ref Poirel et al. (5), cited from earlier work
[7] = C-terminally His6-tagged VIM-1; 50 mM HEPES pH 7.2; apparent for ampicillin and ceftazidime
[8] = 50 mM HEPES pH 7.2; apparent for ampicillin and ceftazidime

| SMILES | kcat VIM-5 (previous study) (VIM-5 [1]) | kcat VIM-1 (VIM-1 [2]; [7]) | Km (VIM-1 [2]; C-terminally His6-tagged VIM-1; 50 mM HEPES pH 7.2; apparent for ampicillin and ceftazidime; read-out: Mean Km ± SD VIM-1) | Km (VIM-1 [2]; read-out: Mean Km ± SD VIM-1; C-terminally His6-tagged VIM-1; 50 mM HEPES pH 7.2; apparent for ampicillin and ceftazidime) | kcat VIM-38 (VIM-38) | Km (VIM-38) | Km (VIM-38; listed as ampicillin) | kcat VIM-5 (VIM-5 [3]) | Km (VIM-5 [3]) | Km (VIM-5 [3]; listed as ampicillin) | kcat VIM-2 (VIM-2 [4]; [8]) | Km (VIM-2 [4]; 50 mM HEPES pH 7.2; apparent for ampicillin and ceftazidime; read-out: Mean Km ± SD VIM-2) | Km (VIM-2 [4]; read-out: Mean Km ± SD VIM-2; 50 mM HEPES pH 7.2; apparent for ampicillin and ceftazidime) | kcat VIM-1 (previous study) (VIM-1 [5]) | Km (VIM-1 [5]) | Km (VIM-5 [1]; read-out: Km VIM-5 (previous study)) | kcat VIM-2 (previous study) (VIM-2 [6]) | Km (VIM-2 [6]; read-out: Km VIM-2 (previous study)) | fold-higher hydrolysis efficiency by VIM-5 than previously reported (VIM-5 [3]; this study versus previously reported ([26])) |
| --- | --- | --- | --- | --- | --- | --- | --- | --- | --- | --- | --- | --- | --- | --- | --- | --- | --- | --- | --- |
| CC1(C)S[C@@H]2[C@H](NC(=O)[C@H](N)c3ccccc3)C(=O)N2[C@H]1C(=O)O [Ampicillin] | 14 s⁻¹ | 122 s⁻¹ and 120 s⁻¹ | > 1000 µM | > 300 µM | 170 s⁻¹ | 380 ± 80 µM | > 300 µM | 230 s⁻¹ | > 1000 µM | > 300 µM | 180 s⁻¹ | > 500 µM | > 300 µM | 37 s⁻¹ | 917 µM | – | – | – | – |
| CC(C)(O/N=C(\C(=O)N[C@@H]1C(=O)N2C(C(=O)[O-])=C(C[n+]3ccccc3)CS[C@H]12)c1csc(N)n1)C(=O)O [Ceftazidime] | 0.2 s⁻¹ | 3 s⁻¹ | – | – | 4 s⁻¹ | 430 ± 140 µM | – | 4 s⁻¹ | 340 ± 80 µM | – | 2 s⁻¹ | – | – | 60 s⁻¹ | 794 µM | 149 µM | 89 s⁻¹ | 98 µM | 10 fold |
| CC(=O)OCC1=C(C(=O)O)N2C(=O)[C@@H](NC(=O)Cc3cccs3)[C@H]2SC1 [Cephalothin] | – | – | – | – | 120 s⁻¹ | 60 ± 8 µM | – | 200 s⁻¹ | 100 ± 8 µM | – | – | – | – | – | – | – | – | – | – |
